Measured values reported in paper PMC6196558, “The nitrilase PtNIT1 catabolizes herbivore-induced nitriles in Populus trichocarpa” (BMC Plant Biology, 2018).

T1: PtNIT1 (Populus trichocarpa, UniProt A0A2Z4EGE4)
T1 construct: tag cleavage not mentioned
T1 sequence (A0A2Z4EGE4 1-377): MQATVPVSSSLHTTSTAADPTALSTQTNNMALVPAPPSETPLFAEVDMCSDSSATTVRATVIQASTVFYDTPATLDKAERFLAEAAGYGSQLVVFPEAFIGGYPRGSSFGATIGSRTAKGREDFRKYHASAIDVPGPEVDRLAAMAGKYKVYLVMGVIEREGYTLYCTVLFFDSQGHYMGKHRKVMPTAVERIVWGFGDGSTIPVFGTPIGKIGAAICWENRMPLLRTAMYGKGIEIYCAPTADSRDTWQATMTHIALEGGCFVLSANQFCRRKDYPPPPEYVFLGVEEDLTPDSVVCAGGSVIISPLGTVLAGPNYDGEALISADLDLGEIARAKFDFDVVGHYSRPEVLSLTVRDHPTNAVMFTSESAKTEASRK

B1: PtNIT1 (Populus trichocarpa) (protein)
chain: T1 sequence (A0A2Z4EGE4 1-377)
notes: tag cleavage not mentioned

Key:
[1] = target: T1, PtNIT1; test: LC-MS/MS product formation; format: biochemical; conditions: potassium phosphate pH 7.2, 32 °C (standard assay)
[2] = substrate: N#CCc1c[nH]c2ccccc12; test: LC-MS/MS product formation; format: biochemical, Populus trichocarpa; conditions: potassium phosphate pH 7.2, 32 °C (standard assay)

Molecule | Km [1] | Km [2]
N#CCc1ccccc1 [benzyl cyanide] | 24.7 ± 1.8 mM | 
N#CC[C@H](N)C(=O)O [β-cyanoalanine] | 1.2 ± 0.1 mM | 
B1 |  | 10.0 ± 1.3 mM
